Assay results taken from patent publication US20230257444A1, “FUSION PROTEIN AND COMBINATIONS THEREOF” (Agency for Science, Technology and Research, priority 2020, published 2023).

Tested on: SC5314 Candida albicans
Assay: In vitro co-culture CFU assay of human primary immune cells against Candida albicans
Format: cell-based
Conditions: 1 hr; for fungicidal activity (CFU): absence or presence of hDectin1-Fc; for reduction in CFU: between hDectin1-Fc 0 μg/ml and 1000 µg/ml, 37° C.
Procedure: Macrophage assay: Human peripheral blood CD14+ monocytes were cultured at 1×10^6 cells/mL in 5 mL of ImmunoCult™-SF Macrophage Differentiation Medium with Human Recombinant M-CSF at 50 ng/ml in a T-25 flask at 37° C. in a 5% CO2 incubator. On Day 4, 2.5 mL of fresh ImmunoCult™-SF Macrophage Differentiation Medium was added to the flask. On Day 6, M1 activation was initiated with the addition of 50 ng/mL IFN-γ. On Day 8, the macrophages were treated with ACCUTASE and scrapped from the flask. The cells were centrifuged and resuspended in RPMI medium with 10% FBS and seeded into Eppendorf 96 well plates at 10^5 cells/well.
NK cell assay: Human Peripheral Blood CD56+NK Cells 1×10^6 cells/mL in 5 mL of ImmunoCult™-XF T Cell Expansion Medium with Human Recombinant IL-2 at 500 IU/ml in a T-25 flask at 37° C. in a 5% CO2 incubator for 7 days. Additional fresh media was added on day 4. The cells were centrifuged and resuspended in RPMI medium with 10% FBS and seeded into Eppendorf 96 well plates at 10^5 cells/well.
Monocyte assay: Human peripheral blood CD14+ Monocytes were cultured at 1×10^6 cells/mL in 5 mL of ImmunoCult™-SF Macrophage Differentiation Medium with Human Recombinant M-CSF at 10 ng/ml in a T-25 flask at 37° C. in a 5% CO2 incubator for 4 days. The cells were centrifuged and resuspended in RPMI medium with 10% FBS and seeded into Eppendorf 96 well plates at 10^5 cells/well.
Neutrophil assay: Human peripheral neutrophils were extracted from Human […] using EasySep™ Direct Human Neutrophil Isolation Kit as per manufacturer's protocol. The isolated neutrophils were centrifuged and resuspended in RPMI medium with 10% FBS and G-CSF and seeded into Eppendorf 96 well plates at 10^5 cells/well.
The co-culture CFU assay involves the addition of 10^5 cells/well of SC5314 Candida albicans cells to wells containing 10^5 cells/well of primary immune cells with final concentration of hDectin1-Fc at […] in a 96 well plate. The assay was incubated for 1 hr at 37° C. in a 5% CO2 atmosphere incubator. Samples were taken from each well at the end of the incubation and diluted accordingly before plating on YPD agar plates. The colonies were counted the following day. Each assay was done thrice and the average taken.
To evaluate the capability of the hDectin1-Fc fusion protein in enhancing immune cell anti-candida function, 10^5 human primary immune cells were co-cultured with 10^5 Candida albicans in a 1 hr long assay incubated at 37° C. with varying concentrations of hDectin1-Fc from […]. The surviving Candida cells were diluted and plated and the colony forming units (CFU) used as a measure of fungicidal activity (FIG. 12). […]

Substance: hDectin1-Fc: soluble dimeric fusion protein: human Dectin-1 receptor polypeptide (aa 73-247) fused to human IgG1 Fc via hinge; SEQ ID NO: 5
- fungicidal activity (CFU) (human NK cells): did not demonstrate any appreciable fungicidal activity
- fungicidal activity (CFU) (human monocytes): did not demonstrate any appreciable fungicidal activity
- reduction in CFU (human primary macrophages): ~50%
- reduction in CFU (human primary neutrophils): ~50%
